Laboratory results reported in US20180148514A1, “MULTIVALENT MEDITOPES, MEDITOPE-BINDING ANTIBODIES AND USES THEREOF” (City of Hope, priority 2014, published 2018).

Assays:
CLL patients = settings: cited from earlier work
MDA-MB-468 cells = experiment: FACS binding of meditopes to MDA-MB-468 cells pre-treated with cetuximab or M425; format: cell-based; settings: with or without cetuximab or M425 pre-treatment
pertuzumab I83E IgG = experiment: SPR, meditope binding to immobilized pertuzumab I83E IgG; settings: two fold dilutions from approximately 10 um to 156 nM
Protocol: The binding of a meditope to a meditope-enabled antibody containing the I83E modification was next examined in an in vitro binding study using surface plasmon resonance (SPR) and a meditope enabled antibody pertuzumab with the I83E modification. […] Concentrations were two fold dilutions from approximately 10 um to 156 nM. […] Further optimization of the experiment will be required due to the long off rate observed.

[1] = Phase I, 46 heavily pretreated CLL patients, single agent

Substance | objective responses (CLL patients; [1]) | patients with decreased peripheral blood lymphocyte counts (CLL patients; [1]) [%] | patients with reduced enlarged lymph node size (CLL patients; [1]) [%] | MTD (maximum tolerated dose) (CLL patients; human, in vivo) | immunosuppression (CLL patients; human, in vivo) | adverse events (AEs) (CLL patients; majority of AEs) | binding to cells (FACS) (MDA-MB-468 cells) | Kd fit (pertuzumab I83E IgG)
lumiliximab: primatized anti-CD23 mAb with cynomolgus macaque variable regions and human constant regions (IgG1-κ) | no objective Complete Responses (CRs) or Partial Responses (PRs) were observed | 91 | 52 | not reached | not immunosuppressive | limited to grade 1/2 | – | –
C-QFDLSTRRLK-C [cQFD] | – | – | – | – | – | – | bound to EGFR positive MD-MBA-468 cells only in the presence of cetuximab | no Kd could be fit to the data
